From US6436902B1, “Therapeutic preparations for inhalation” (AstraZeneca AB, priority 1994, dated 2002)

Key:
[1] = Pharmacokinetic study: plasma concentration of PTH in dogs after inhalation of dry powder aerosol (RIA); type: in vivo, Beagle dogs; conditions: for Shape of serum/plasma profile after inhalation: dry powder aerosol inhaled via endotracheal tube; for Plasma concentration of PTH: PTH 1-84, inhaled dose 14 μg/kg
Description: The powder formulations were compressed in dust containers and generated continuously as dry powder aerosols by a Wright Dust Feed (WDF). The aerosols were generated by scraping off the formulations from the tablets in the dust containers. The mass flow through the WDF was 8.01/min.
The inhaled dose (ID) was determined by measuring the inspiratory tidal volume (ITV) and the PTH concentration during inhalation.
Beagle dogs (n=5, at each formulation) were starved for 16 hours before inhalation and the experiments were performed in the mornings.
Venous blood samples for determination of PTH concentration were taken from the jugular vein into heparinized vacutainer tubes (2 ml). The samples were collected before dosing and at 10, 15, 20, 30, 40, 60, 90, 120, 240 and 360 minutes after start (t=0) of inhalation. The whole blood samples were centrifuged immediately, alternatively kept in ice water for maximum 20 minutes before centrifugation, and the plasma (1 ml) was sampled for PTH analysis. PTH in plasma was analyzed using radioimmunoassay (RIA) kits.

[2] = rats, intratracheal (IT) administration, cited from earlier work; for Shape of serum profile: 90 minutes experiment
[3] = system: ovariectomized osteopenic rats; test: Bone effect: mineral density of the distal femur in ovariectomized osteopenic rats; type: in vivo; conditions: inhalation, 4 weeks of administration starting 6 weeks post ovariectomy
Description: The bone effect is measured in ovariectomized osteopenic rats as mineral density as weight/volume of the distal femur after 4 weeks of administration; starting 6 weeks post ovariectomy.

CC[C@H](C)[C@H](NC(=O)[C@H](CCC(=O)O)NC(=O)[C@H](CO)NC(=O)[C@@H](NC(=O)[C@@H](N)CO)C(C)C)C(=O)N[C@@H](CCC(N)=O)C(=O)N[C@@H](CC(C)C)C(=O)N[C@@H](CCSC)C(=O)N[C@@H](Cc1cnc[nH]1)C(=O)N[C@@H](CC(N)=O)C(=O)N[C@@H](CC(C)C)C(=O)NCC(=O)N[C@@H](CCCCN)C(=O)N[C@@H](Cc1cnc[nH]1)C(=O)N[C@@H](CC(C)C)C(=O)N[C@@H](CC(N)=O)C(=O)N[C@@H](CO)C(=O)N[C@@H](CCSC)C(=O)N[C@@H](CCC(=O)O)C(=O)N[C@@H](CCCN=C(N)N)C(=O)N[C@H](C(=O)N[C@@H](CCC(=O)O)C(=O)N[C@@H](Cc1c[nH]c2ccccc12)C(=O)N[C@@H](CC(C)C)C(=O)N[C@@H](CCCN=C(N)N)C(=O)N[C@@H](CCCCN)C(=O)N[C@@H](CCCCN)C(=O)N[C@@H](CC(C)C)C(=O)N[C@@H](CCC(N)=O)C(=O)N[C@@H](CC(=O)O)C(=O)N[C@H](C(=O)N[C@@H](Cc1cnc[nH]1)C(=O)N[C@@H](CC(N)=O)C(=O)N[C@@H](Cc1ccccc1)C(=O)O)C(C)C)C(C)C [PTH 1-34]
level at time molar at 10 min ([1]; beagle, dog, plasma, inhaled or intranasal, 4 ug/kg, PTH 1-34, inhaled dose 4.0 μg/kg, 10 min after start of inhalation): 0.0304 nM | level at time molar at 0.25 h ([1]; beagle, dog, plasma, inhaled or intranasal, 4 ug/kg, PTH 1-34, inhaled dose 4.0 μg/kg, 15 min after start of inhalation): 0.0474 nM | level at time molar at 20 min ([1]; beagle, dog, plasma, inhaled or intranasal, 4 ug/kg, PTH 1-34, inhaled dose 4.0 μg/kg, 20 min after start of inhalation): 0.0496 nM | level at time molar at 0.5 h ([1]; beagle, dog, plasma, inhaled or intranasal, 4 ug/kg, PTH 1-34, inhaled dose 4.0 μg/kg, 30 min after start of inhalation): 0.0446 nM | level at time molar at 40 min ([1]; beagle, dog, plasma, inhaled or intranasal, 4 ug/kg, PTH 1-34, inhaled dose 4.0 μg/kg, 40 min after start of inhalation): 0.0362 nM | level at time molar at 1 h ([1]; beagle, dog, plasma, inhaled or intranasal, 4 ug/kg, PTH 1-34, inhaled dose 4.0 μg/kg, 60 min after start of inhalation): 0.026 nM | level at time molar at 1.5 h ([1]; beagle, dog, plasma, inhaled or intranasal, 4 ug/kg, PTH 1-34, inhaled dose 4.0 μg/kg, 90 min after start of inhalation): 0.017 nM | level at time molar at 2 h ([1]; beagle, dog, plasma, inhaled or intranasal, 4 ug/kg, PTH 1-34, inhaled dose 4.0 μg/kg, 120 min after start of inhalation): 0.0126 nM | level at time molar at 4 h ([1]; beagle, dog, plasma, inhaled or intranasal, 4 ug/kg, PTH 1-34, inhaled dose 4.0 μg/kg, 240 min after start of inhalation): 0.006 nM | level at time molar at 6 h ([1]; beagle, dog, plasma, inhaled or intranasal, 4 ug/kg, PTH 1-34, inhaled dose 4.0 μg/kg, 360 min after start of inhalation): 0.0076 nM | level at time molar at 0 h ([1]; beagle, dog, plasma, inhaled or intranasal, 4 ug/kg, PTH 1-34, inhaled dose 4.0 μg/kg, time 0 min (before dosing)): 0.008 nM | Shape of serum/plasma profile after inhalation [1]: pulsatile serum profile | Shape of serum profile [2]: activity diminishing rapidly thereafter | Time of serum peak [2]: 15 min

PTH 1-84: Human parathyroid hormone, 84 amino acid protein (SEQ ID NO: 1); given as micronised dry powder with lactose and citrate
Plasma concentration of PTH ([1]; 10 min after start of inhalation): 0.0083 nM | Plasma concentration of PTH ([1]; 15 min after start of inhalation): 0.0114 nM | Plasma concentration of PTH ([1]; 20 min after start of inhalation): 0.0116 nM | Plasma concentration of PTH ([1]; 30 min after start of inhalation): 0.0096 nM | Plasma concentration of PTH ([1]; 40 min after start of inhalation): 0.0079 nM | Plasma concentration of PTH ([1]; 60 min after start of inhalation): 0.0058 nM | Plasma concentration of PTH ([1]; 90 min after start of inhalation): 0.0041 nM | Plasma concentration of PTH ([1]; 120 min after start of inhalation): 0.003 nM | Plasma concentration of PTH ([1]; 360 min after start of inhalation): 0.0026 nM | Plasma concentration of PTH ([1]; time 0 min (before dosing)): 0.0034 nM | Shape of serum/plasma profile after inhalation [1]: pulsatile serum profile | Shape of serum/plasma profile after inhalation ([1]; listed as full-length PTH): pulsative plasma profile | Effect on femur bone formation (mineral density of the distal femur) [3]: significant effect on femur bone formation | Shape of serum profile [2]: plateau which did not diminish significantly during the 90 minutes
